Test results as given in patent US20240390452A1, “Protective Agent Against Endothelial Dysfunction” (THE TRUSTEES OF THE UNIVERSITY OF PENNSYLVANIA, priority 2023, published 2024).
Entries after “also recorded” stand apart in the source; their conditions may differ.

Columns and labels:
[1] = test system: lung oxidative injury; settings: earlier work; cited from earlier work
[2] = test system: ICAM-1; assay: ICAM-1 immunostaining in HPMVEC exposed to COVID-19 serum; type: cell-based, human; settings: HPMVEC pre-treated 3 hrs with PIP-2 in liposomes (10 nM), then COVID-19 serum; anti-ICAM immunostaining
Experimental: Primary cultures of Human Pulmonary Microvascular Endothelial Cells (HPMVEC) were grown in a T-25 culture dish and routinely maintained in Dulbecco's Modified Eagle Medium (DMEM) supplemented with 10% fetal bovine serum (FBS), 1× glutamax, 1× antibiotics, and endothelial cell growth supplement (Millipore Upstate). Cells were grown and maintained in 5% CO2 at 37° C. Once grown to the appropriate density, cells were then split and grown on coverslips in 35 mm petri dishes. Cells were then treated either with medium supplemented with 10% serum from healthy individuals or COVID-19 patients at admission to ICU and then monitored for ROS production and ICAM-1 induction as described below.
HPMVEC were incubated for one hour in the incubator at 37° C. and 5% CO2 with medium supplemented with 10% serum either from a healthy individual or from patients suffering from COVID-19. The serum replaced the FBS which was otherwise used as a supplement in DMEM. Post incubation, cells were either fixed for ICAM-1 immuno-staining or the cells were stained for ROS measurement as described below. Serum from one healthy individual and seven COVID-19 patients were used in this study.
HPMVEC were incubated for three hours in the incubator at 37° C. and 5% CO2 with medium supplemented with either liposomes alone or PIP-2 in liposomes (concentration 10 nM) without 10% FBS. […]

[3] = test system: NLRP3 subunit of the inflammasome; assay: NLRP3 immunostaining in cells exposed to COVID-19 serum; type: cell-based, human; settings: cells pre-treated 3 hrs with PIP-2, then COVID-19 serum 1 hr; anti-NLRP3 immunostaining
Experimental: (§1) Cells were pre-treated for 3 hrs with PIP-2 and then with COVID-19 serum/normal serum for an hour. Cells were then fixed and NLRP3/caspase-1 were monitored by immunostaining with anti-NLRP3 or activated caspase-1 antibody. FIG. 4A: NLRP3 immunostaining. FIG. 4B: Quantification of the fluorescent signal using Metamorph imaging software *p<0.001. FIG. 4C: Caspase-1 immunostaining. FIG. 4D: Quantification of the fluorescent signal using Metamorph imaging software *p<0.05.
(§2) HPMVEC were incubated for three hours in the incubator at 37° C. and 5% CO2 with medium supplemented with either liposomes alone or PIP-2 in liposomes (concentration 10 nM) without 10% FBS. After 3 hours of incubation, cells were either treated with serum of a healthy individual or COVID-19 patients at admission to ICU along with either liposomes alone or PIP-2 in liposomes together for one hour and three hours for ROS measurement and ICAM-1 induction respectively.

[4] = test system: Human Pulmonary Microvascular Endothelial Cells (HPMVEC); type: cell-based; settings: HPMVEC pre-treated 3 hrs with PIP-2 in liposomes (10 nM), then COVID-19 serum 1 hr; CellROX fluorescence
[5] = molecular target: T1, phospholipase A2 (PLA2) activity of peroxiredoxin 6 (Prdx6) (Homo sapiens, UniProt P30041); settings: earlier work / WO 2020/037146 A1; cited from earlier work
T1 sequence (P30041 1-224): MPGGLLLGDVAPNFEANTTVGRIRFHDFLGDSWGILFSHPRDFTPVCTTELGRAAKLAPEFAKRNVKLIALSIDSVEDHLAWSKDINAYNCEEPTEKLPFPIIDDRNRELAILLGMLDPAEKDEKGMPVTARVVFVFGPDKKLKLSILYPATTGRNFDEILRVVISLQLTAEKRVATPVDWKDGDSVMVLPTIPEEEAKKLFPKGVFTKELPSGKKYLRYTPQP

[6] = test system: caspase-1; assay: Activated caspase-1 immunostaining in cells exposed to COVID-19 serum; type: cell-based, human; settings: cells pre-treated 3 hrs with PIP-2, then COVID-19 serum 1 hr; activated caspase-1 antibody immunostaining
Experimental: as §1, §2

Row | Compound | protection against lung oxidative injury [1] | ICAM-1 expression (endothelial inflammatory phenotype) [2] | NLRP3 expression [3] | ROS production (endothelial activation) post COVID-19 serum exposure [4] | inhibition of PLA2 (aiPLA2) activity of Prdx6 [5] | caspase 1 expression [6]
1 | CCCCCCCCCCCCCCCCOCC(COCC(F)(F)F)OP(=O)(O)OC (stereo not drawn) [MJ33] | able to protect against lung oxidative injury | – | – | – | – | –
2 | LHDFRHQIL (in liposomes) [PIP-2, tested in liposomes] | – | prevented the appearance of an endothelial inflammatory phenotype; also recorded: significantly reduced; also recorded: decreased; also recorded: significantly reverse | significantly reduced; also recorded: decreased | protected the endothelium from activation; also recorded: significant decrease; also recorded: decreased; also recorded: able to reduce the endothelial activation; also recorded: significantly reverse | specific for inhibition of aiPLA2 activity | significantly reduced; also recorded: decreased
